One data set has as its system A549. The data set is described as follows: Cytotoxicity against human A549 cells assessed as reduction in cell viability after 72 hrs by MTT assay. Format: functional, cell-based. To be noted: A549, 72 h. (In general: Tetrazolium assays rely on reduction of a dye to a coloured formazan, in cell work by metabolically active cells.)
The test system of the next data set is BEAS-2B. As to the kind of experiment: Cytotoxicity against human BEAS2B cells assessed as reduction in cell viability after 72 hrs by MTT assay. Format: cell-based.
The nature of data set [1]: Selectivity index, ratio of IC50 for human BEAS2B cells to IC50 for human A549 cells. In kind it is toxicity.

The source of these data is ChEMBL document CHEMBL4229359, “Simple 2(5H)-furanone derivatives with selective cytotoxicity towards non-small cell lung cancer cell line A549 - Synthesis, structure-activity relationship and biological evaluation” (Eur J Med Chem, 2018).

What is called IC50 is the concentration that inhibits the measured activity by half.

`CCCCOC1OC(=O)C(Cl)=C1Nc1ccc(F)cc1` (stereo not given): the IC50 in the data set with A549 was 78.5 µM; in the data set on BEAS-2B, 122 µM. In addition, the “log(RatioIC50)” value in data set [1] is 0.19.

Regarding `CC(C)(C)COC1OC(=O)C(Cl)=C1Nc1ccc(Cl)cc1` (stereo not given), the IC50 amounted to 13.3 µM with A549 and 30.3 µM in the data set with BEAS-2B. Moreover, the “log(RatioIC50)” value in data set [1] is reported as 0.36.

As to `CC(C)(C)COC1OC(=O)C(Cl)=C1N1CCCCC1` (stereo not given), the IC50 in the data set on A549 and in the data set with BEAS-2B was > 400 µM in each case.

As for `CCCCOC1OC(=O)C(Cl)=C1Nc1ccc(Cl)cc1` (stereo not given), the figures for the IC50 in the data set on A549 and in the data set with BEAS-2B were 58.1 µM and 60.8 µM, respectively. For the same molecule, the “log(RatioIC50)” value in data set [1] is given as 0.02.

On to `CCCCOC1OC(=O)C(Cl)=C1Cl` (stereo not given), for which the IC50 in the data set with A549 came to 22.5 µM; with BEAS-2B it was 22.3 µM. In data set [1], the “log(RatioIC50)” value was found to be 0.

`CCCCOC1OC(=O)C(Cl)=C1Nc1ccc(Br)cc1` (stereo not given): the IC50 came out at 46.5 µM in the data set on A549 and 42.7 µM with BEAS-2B. Further, the “log(RatioIC50)” value in data set [1] is recorded as -0.04.

Consider `CC(C)OC1OC(=O)C(Cl)=C1Nc1ccc(Br)cc1` (stereo not given), for which the concentration for half-maximal inhibition (IC50) turned out to be 95.9 µM in the data set on A549 and 202 µM with BEAS-2B. In addition, the “log(RatioIC50)” value in data set [1] was determined as 0.32.

On to `COC1OC(=O)C(Cl)=C1Cl` (stereo not given), for which the IC50 in the data set with A549 turned out to be 5.1 µM; in the data set with BEAS-2B it was 4.6 µM. The “log(RatioIC50)” value in data set [1] was determined as 0.05.

As for `CCCCOC1OC(=O)C(Cl)=C1N1CCCCC1` (stereo not given), the IC50 was found to be 93.3 µM with A549 and 172 µM in the data set on BEAS-2B. Further, the “log(RatioIC50)” value in data set [1] was 0.27.

Consider `CCCOC1OC(=O)C(Cl)=C1Cl` (stereo not given), for which the half-maximal inhibitory concentration (IC50) amounted to 3.6 µM in the data set on A549 and 3.5 µM in the data set on BEAS-2B. Besides, in data set [1], the “log(RatioIC50)” value was -0.02.

Turning to `CC(C)(C)COC1OC(=O)C(Cl)=C1Nc1ccc(Br)cc1` (stereo not given), the IC50 with A549 was 28 µM; in the data set with BEAS-2B, 30.9 µM. Moreover, the “log(RatioIC50)” value in data set [1] came to 0.23.

As to `CC(C)(C)OC1OC(=O)C(Cl)=C1Cl` (stereo not given), the IC50 in the data set with A549 is 14 µM; in the data set on BEAS-2B, 23.1 µM. Also, in data set [1], the “log(RatioIC50)” value stood at 0.22.
